Data as given in PubChem BioAssay AID330 (DTP/NCI, 2004).
Several values for one entry are separate records, joined by “and”; a condition that tells them apart may be missing. Identical values can stand only once. Toxic doses and inconclusive results are not listed. Rule for the calls: active = survival T/C of 150% or more; inactive = T/C below 125% in these data.

System: P388 leukemia ip, CD2F1 mice, survival T/C
Assay: NCI In Vivo Anticancer Drug Screen. Data for tumor model P388 Leukemia (intraperitoneal) in CD2F1 (CDF1) mice
Details: endpoint: median survival time, higher = longer survival
In short: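 Mice carrying the transplanted tumor received test compound or vehicle. Survival was recorded in each group, and the value is the treated-group measurement divided by that of the vehicle-treated control group.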

[1] = dose: 6.25 mg/kg/injection, schedule: Q01DX009 (ip), vehicle: saline with Tween-80
[2] = dose: 12.5 mg/kg/injection, schedule: Q01DX009 (ip), vehicle: saline with Tween-80
[3] = dose: 100.0 mg/kg/injection, schedule: Q01DX001 (ip), vehicle: Klucel (hydroxypropylcellulose) (HPC)
[4] = dose: 200.0 mg/kg/injection, schedule: Q01DX001 (ip), vehicle: Klucel (hydroxypropylcellulose) (HPC)
[5] = dose: 400.0 mg/kg/injection, schedule: Q01DX001 (ip), vehicle: Klucel (hydroxypropylcellulose) (HPC)
[6] = dose: 12.5 mg/kg/injection, schedule: Q01DX009 (ip), vehicle: saline
[7] = dose: 25.0 mg/kg/injection, schedule: Q01DX009 (ip), vehicle: saline
[8] = dose: 50.0 mg/kg/injection, schedule: Q01DX009 (ip), vehicle: Klucel (hydroxypropylcellulose) (HPC)
[9] = dose: 50.0 mg/kg/injection, schedule: Q01DX009 (ip), vehicle: saline
[10] = dose: 100.0 mg/kg/injection, schedule: Q01DX009 (ip), vehicle: saline
[11] = dose: 100.0 mg/kg/injection, schedule: Q04DX003 (ip), vehicle: saline with Tween-80
[12] = dose: 200.0 mg/kg/injection, schedule: Q01DX009 (ip), vehicle: Klucel (hydroxypropylcellulose) (HPC)
[13] = dose: 200.0 mg/kg/injection, schedule: Q01DX009 (ip), vehicle: saline
[14] = dose: 100.0 mg/kg/injection, schedule: Q01DX009 (ip), vehicle: Klucel (hydroxypropylcellulose) (HPC)
[15] = dose: 60.0 mg/kg/injection, schedule: Q01DX005 (ip), vehicle: saline with Tween-80
[16] = dose: 120.0 mg/kg/injection, schedule: Q01DX005 (ip), vehicle: saline with Tween-80
[17] = dose: 240.0 mg/kg/injection, schedule: Q01DX005 (ip), vehicle: saline with Tween-80
[18] = dose: 50.0 mg/kg/injection, schedule: Q01DX009 (ip), vehicle: suspension in saline
[19] = dose: 100.0 mg/kg/injection, schedule: Q01DX009 (ip), vehicle: suspension in saline
[20] = dose: 100.0 mg/kg/injection, schedule: Q04DX003 (ip), vehicle: Klucel (hydroxypropylcellulose) (HPC)
[21] = dose: 200.0 mg/kg/injection, schedule: Q04DX003 (ip), vehicle: Klucel (hydroxypropylcellulose) (HPC)
[22] = dose: 400.0 mg/kg/injection, schedule: Q04DX003 (ip), vehicle: Klucel (hydroxypropylcellulose) (HPC)

Measured: T/C

COc1cc(Cc2nnc(N)[nH]c2=O)cc(OC)c1OC
inactive: [1] 97 % of control | [2] 91 % of control | [3] 116 % of control | [4] 89 % of control | [5] 100 % of control

CCc1ccccc1N1CCN(C(=O)c2cc(OC)c(OC)c(OC)c2)CC1
active: dose: 150.0 mg/kg/injection, schedule: Q01DX009 (ip), vehicle: saline with Tween-80 150 % of control
inactive: dose: 12.5 mg/kg/injection, schedule: Q01DX009 (ip), vehicle: Klucel (hydroxypropylcellulose) (HPC) 95 % of control | [6] 100 % of control and 120 % of control | dose: 25.0 mg/kg/injection, schedule: Q01DX009 (ip), vehicle: Klucel (hydroxypropylcellulose) (HPC) 104 % of control | [7] 102 % of control and 91 % of control | dose: 44.0 mg/kg/injection, schedule: Q01DX009 (ip), vehicle: saline with Tween-80 120 % of control | [8] 113 % of control | [9] 102 % of control and 93 % of control | dose: 66.0 mg/kg/injection, schedule: Q01DX009 (ip), vehicle: saline with Tween-80 115 % of control | dose: 75.0 mg/kg/injection, schedule: Q04DX003 (ip), vehicle: saline with Tween-80 109 % of control | dose: 100.0 mg/kg/injection, schedule: Q01DX009 (ip), vehicle: saline with Tween-80 115 % of control | [10] 90 % of control and 93 % of control | [11] 105 % of control | dose: 150.0 mg/kg/injection, schedule: Q04DX003 (ip), vehicle: saline with Tween-80 114 % of control | [12] 92 % of control | [13] 88 % of control | dose: 225.0 mg/kg/injection, schedule: Q04DX003 (ip), vehicle: saline with Tween-80 121 % of control | dose: 300.0 mg/kg/injection, schedule: Q04DX003 (ip), vehicle: saline with Tween-80 100 % of control | dose: 400.0 mg/kg/injection, schedule: Q01DX009 (ip), vehicle: saline 95 % of control

OC1(CC2CO2)CCCc2ccccc21 (stereo unspecified)
inactive: [8] 93 % of control | [14] 91 % of control | [12] 93 % of control

Cc1cc(C)n2c(-c3ccccc3)c(C)c(C(N)=O)c2n1
inactive: [15] 98 % of control | [16] 99 % of control | [17] 100 % of control

COc1ccc(C(O)(c2ccccc2)c2ccccc2)c(OC)c1
inactive: [8] 98 % of control | [14] 93 % of control | [12] 95 % of control

CC(C)c1ccc(C2NC(C(=O)O)CS2)cc1 (stereo unspecified)
inactive: [18] 93 % of control | [19] 90 % of control

N#CC1=CC2C3C(=O)N(c4ccccc4)C(=O)C3C1N(Cc1ccccc1)C2c1ccccc1 (stereo unspecified)
inactive: dose: 12.5 mg/kg/injection, schedule: Q01DX005 (ip), vehicle: saline with Tween-80 95 % of control | dose: 12.5 mg/kg/injection, schedule: Q04DX002 (ip), vehicle: saline with Tween-80 102 % of control | dose: 25.0 mg/kg/injection, schedule: Q01DX005 (ip), vehicle: saline with Tween-80 91 % of control | dose: 25.0 mg/kg/injection, schedule: Q04DX002 (ip), vehicle: saline with Tween-80 94 % of control | dose: 50.0 mg/kg/injection, schedule: Q01DX005 (ip), vehicle: saline with Tween-80 89 % of control | dose: 50.0 mg/kg/injection, schedule: Q04DX002 (ip), vehicle: saline with Tween-80 94 % of control | dose: 200.0 mg/kg/injection, schedule: Q01DX005 (ip), vehicle: saline with Tween-80 87 % of control | dose: 200.0 mg/kg/injection, schedule: Q04DX002 (ip), vehicle: saline with Tween-80 87 % of control | dose: 400.0 mg/kg/injection, schedule: Q04DX002 (ip), vehicle: saline with Tween-80 89 % of control

COc1ccc(C2CC(=O)NC(N)=N2)c(O)c1 (stereo unspecified)
inactive: [9] 103 % of control | [10] 104 % of control | [13] 103 % of control

Nc1[nH]c(=S)[nH]c(=O)c1N=Cc1ccc(Cl)c(Cl)c1
inactive: dose: 50.0 mg/kg/injection, schedule: Q01DX001 (ip), vehicle: Klucel (hydroxypropylcellulose) (HPC) 100 % of control | [3] 100 % of control and 102 % of control and 114 % of control | [4] 103 % of control (2×) and 116 % of control | [5] 107 % of control and 110 % of control

CNC(=O)Oc1ccc2c(c1)[C@]1(C)CCN(C)O[C@@H]1N2C
inactive: dose: 0.79 mg/kg/injection, schedule: Q01DX005 (ip), vehicle: Klucel (hydroxypropylcellulose) (HPC) 100 % of control | dose: 1.56 mg/kg/injection, schedule: Q01DX005 (ip), vehicle: Klucel (hydroxypropylcellulose) (HPC) 100 % of control

COC(=O)c1cc(-c2ccccc2)[nH]c1-c1ccccc1
inactive: [6] 105 % of control | [7] 104 % of control | [9] 102 % of control

CCC(C)C1C(=O)OC(C(Cl)(Cl)Cl)N1Cc1ccc(OC)cc1OC (stereo unspecified)
inactive: [20] 109 % of control | [21] 107 % of control | [22] 104 % of control

Cc1c[nH]c(=O)cn1
inactive: [20] 95 % of control | [21] 90 % of control | [22] 95 % of control

C=C1C[C@H](O)[C@H]2C(C[Se]c3ccccc3)C(=O)O[C@@H]2[C@H]2[C@H](C)C(=O)C[C@@H]12 (stereo partly specified)
inactive: [15] 97 % of control | [16] 95 % of control | [17] 92 % of control

CSc1nc2ccc(N)cc2s1
inactive: [11] 97 % of control | dose: 200.0 mg/kg/injection, schedule: Q04DX003 (ip), vehicle: saline with Tween-80 99 % of control | dose: 400.0 mg/kg/injection, schedule: Q04DX003 (ip), vehicle: saline with Tween-80 93 % of control

NNC(=O)c1ccc2ccccc2c1O
inactive: [7] 103 % of control | [9] 99 % of control | [10] 101 % of control | [13] 96 % of control

CC(C)CC1COC(=O)C(CC(C)C)NC(=O)COCC(=O)NC(CC(C)C)C(=O)OCC(CC(C)C)NC(=O)COCC(=O)N1 (stereo unspecified)
inactive: dose: 60.0 mg/kg/injection, schedule: Q01DX005 (ip), vehicle: Klucel (hydroxypropylcellulose) (HPC) 99 % of control | dose: 120.0 mg/kg/injection, schedule: Q01DX005 (ip), vehicle: Klucel (hydroxypropylcellulose) (HPC) 100 % of control | dose: 240.0 mg/kg/injection, schedule: Q01DX005 (ip), vehicle: Klucel (hydroxypropylcellulose) (HPC) 101 % of control

CC(=O)Nc1ccc(/C=C2\C(=O)Nc3ccccc32)cc1
inactive: [8] 99 % of control and 91 % of control | [14] 87 % of control and 96 % of control | [12] 89 % of control and 91 % of control

CCCCNC1c2ccccc2CCC1O (stereo unspecified)
inactive: [3] 97 % of control | dose: 100.0 mg/kg/injection, schedule: Q04DX002 (ip), vehicle: Klucel (hydroxypropylcellulose) (HPC) 118 % of control | [4] 99 % of control

C/C(=C\C(=N\N=C(N)N)c1ccc(Cl)cc1)c1ccc(Cl)cc1
inactive: [1] 118 % of control | [2] 98 % of control

CC(=O)OC/C=C(\C)CC(/C=C(C)/C=C/C1=C(C)CCCC1(C)C)S(=O)(=O)c1ccccc1 (stereo unspecified)
inactive: [2] 100 % of control | dose: 25.0 mg/kg/injection, schedule: Q01DX009 (ip), vehicle: saline with Tween-80 106 % of control | dose: 50.0 mg/kg/injection, schedule: Q01DX009 (ip), vehicle: saline with Tween-80 90 % of control and 93 % of control | dose: 200.0 mg/kg/injection, schedule: Q01DX009 (ip), vehicle: saline with Tween-80 92 % of control

N#CC(C(O)c1ccccc1)N1CCCCC1 (stereo unspecified)
inactive: [18] 111 % of control | [19] 100 % of control | dose: 200.0 mg/kg/injection, schedule: Q01DX009 (ip), vehicle: suspension in saline 92 % of control

COc1cccc2c1C(=O)c1c(O)c3c(c(O)c1C2=O)CC(O)(C(=O)C(C)C)CC3OC1CC(N)C(O)C(C)O1 (stereo unspecified)
inactive: dose: 3.13 mg/kg/injection, schedule: Q01DX009 (ip), vehicle: water 117 % of control | dose: 4.7 mg/kg/injection, schedule: Q04DX003 (ip), vehicle: water 115 % of control | dose: 6.25 mg/kg/injection, schedule: Q01DX009 (ip), vehicle: water 117 % of control | dose: 9.4 mg/kg/injection, schedule: Q04DX003 (ip), vehicle: water 110 % of control | dose: 18.8 mg/kg/injection, schedule: Q04DX003 (ip), vehicle: water 101 % of control | dose: 75.0 mg/kg/injection, schedule: Q04DX003 (ip), vehicle: water 92 % of control
